Results reported in patent publication US20210138025A1, “CATIONIC PEPTIDES WITH IMMUNOMODULATORY AND/OR ANTI-BIOFILM ACTIVITIES” (priority 2018, published 2021).
No end group written: not given here.

Tests used:
PBMCs = assay: Cytotoxicity towards PBMCs, lactate dehydrogenase (LDH) release assay (Tables 6, 7); conditions: SPOT synthesized peptide ~25 μM, PBMCs from 3 human donors; Table 6
Histophilus somnus (Hs) [1] = assay type: cell-based
Description: (§1) The same strains as in Table 18 were assessed for Minimal Biofilm Inhibitory Concentrations (MBIC) (Table 19). Italics=excellent activity (less than or equal to 4 μg/ml). ND=Not determined. Peptides 3013, 3015 and 3016 inhibited biofilm growth in the largest number of bacterial strains (5, 5 and 6 out of 13 strains, respectively).

[2] = test system: Staphylococcus pseudintermedius (Sp); assay type: cell-based
Description: as §1

[3] = test system: Pasteurella multocida (Pm); assay type: cell-based
Description: as §1

Streptococcus suis (Ss) [4] = assay type: cell-based
Description: as §1

[5] = test system: Streptococcus uberis (Su); assay type: cell-based
Description: as §1

[6] = test system: Streptococcus dysgalactiae (Sd); assay type: cell-based
Description: as §1

[7] = test system: Staphylococcus epidermidis (Se); assay type: cell-based
Description: as §1

[8] = test system: Bordatella bronchiseptica (Bb); assay type: cell-based
Description: as §1

[9] = test system: Pseudomonas aeruginosa (Pa); assay type: cell-based
Description: as §1

[10] = test system: Streptococcus agalactiae (Sa); assay type: cell-based
Description: as §1

S. aureus (Sau) [11] = assay type: cell-based; conditions: Sau
E. coli (Ec) [12] = assay type: cell-based; conditions: Ec
Description: as §1
(§2) In addition, several peptides expressed preferential activity vs. biofilms (MBIC) cf. planktonic cells (MIC) (Table 20).

S. aureus (Sau) [13] = assay type: cell-based; conditions: Sau; remark: listed apart in the source
Description: as §1, §2

E. coli (Ec) [14] = assay type: cell-based; conditions: Ec; remark: listed apart in the source
[15] = test system: planktonic methicillin resistant S. aureus; assay: microbe, parasite or virus in culture; assay type: cell-based, Staphylococcus aureus; conditions: planktonic methicillin resistant
Histophilus somnus (Hs) [16] = assay type: cell-based; remark: listed apart in the source
Description: (§3) The following strains were assessed vs. Staphylococcus epidermidis (Se), Pseudomonas aeruginosa (Pa), Streptococcus dysgalactiae (Sd), Pasteurella multocida (Pm), Streptococcus agalactiae (Sa), Streptococcus uberis (Su), Streptococcus suis (Ss), Mannheimia haemolytica (Mh), Bordatella bronchiseptica (Bb), Histophilus somnus (Hs), and Staphylococcus pseudintermedius (Sp) (Table 18) for Minimal Inhibitory Concentrations (MIC). Italics=excellent activity (less than or equal to 4 μg/ml).

[17] = test system: Mannheimia haemolytica (Mh); assay type: cell-based
Description: as §3

[18] = test system: Staphylococcus pseudintermedius (Sp); assay type: cell-based; remark: listed apart in the source
Description: as §3

[19] = test system: Pasteurella multocida (Pm); assay type: cell-based; remark: listed apart in the source
Description: as §3

Streptococcus suis (Ss) [20] = assay type: cell-based; remark: listed apart in the source
Description: as §3

[21] = test system: Streptococcus uberis (Su); assay type: cell-based; remark: listed apart in the source
Description: as §3

[22] = test system: Streptococcus dysgalactiae (Sd); assay type: cell-based; remark: listed apart in the source
Description: as §3

[23] = test system: Staphylococcus epidermidis (Se); assay type: cell-based; remark: listed apart in the source
Description: as §3

[24] = test system: Bordatella bronchiseptica (Bb); assay type: cell-based; remark: listed apart in the source
Description: as §3

[25] = test system: Pseudomonas aeruginosa (Pa); assay type: cell-based; remark: listed apart in the source
Description: as §3

[26] = test system: Streptococcus agalactiae (Sa); assay type: cell-based; remark: listed apart in the source
Description: as §3

[27] = test system: Mannheimia haemolytica (Mh); assay type: cell-based; remark: listed apart in the source
Description: as §1

AVAKWALKLWKQ-NH2 [Peptide 3009, AVAKWALKLWKQ]
% Toxicity (LDH Release) (PBMCs): −3.2% | MBIC (Histophilus somnus (Hs) [1]): 16 µg/mL | MBIC [2]: 8 µg/mL | MBIC [3]: 16 µg/mL | MBIC (Streptococcus suis (Ss) [4]): 16 µg/mL | MBIC [5]: 16 µg/mL | MBIC [6]: 16 µg/mL | MBIC [7]: >64 µg/mL | MBIC [8]: 64 µg/mL | MBIC [9]: >64 µg/mL | MBIC [10]: >64 µg/mL | MIC S. aureus (S. aureus (Sau) [11]): >64 µg/mL | MIC Sau (S. aureus (Sau) [11]): >64 µg/mL | MBIC (E. coli (Ec) [12]): 32 µg/mL | MBIC E. coli (E. coli (Ec) [12]): 32 µg/mL | MBIC (S. aureus (Sau) [13]): 64 µg/mL | MBIC S. aureus (S. aureus (Sau) [13]): 64 µg/mL | MIC E. coli (E. coli (Ec) [14]): >64 µg/mL | MIC Ec (E. coli (Ec) [14]): >64 µg/mL | MIC (μM) MHB [15]: >64 µM | MIC (μM) TSB with 1% Glucose [15]: >64 µM | MIC Hs (Histophilus somnus (Hs) [16]): 64 µg/mL | MIC Mh [17]: >64 µg/mL | MIC Sp [18]: 4 µg/mL | MIC Pm [19]: >64 µg/mL | MIC Ss (Streptococcus suis (Ss) [20]): >64 µg/mL | MIC Su [21]: 32 µg/mL | MIC Sd [22]: 32 µg/mL | MIC Se [23]: >64 µg/mL | MIC Bb [24]: >64 µg/mL | MIC Pa [25]: >64 µg/mL | MIC Sa [26]: >64 µg/mL

AVKWLGWILAKK-NH2 [Peptide 3016, AVKWLGWILAKK]
% Toxicity (LDH Release) (PBMCs): 0.8% | MBIC (Histophilus somnus (Hs) [1]): 4 µg/mL | MBIC [27]: >64 µg/mL | MBIC [2]: 8 µg/mL | MBIC [3]: 8 µg/mL | MBIC (Streptococcus suis (Ss) [4]): 32 µg/mL | MBIC [5]: 8 µg/mL | MBIC [6]: >64 µg/mL | MBIC [7]: 4 µg/mL | MBIC [8]: 64 µg/mL | MBIC [9]: 32 µg/mL | MBIC [10]: 64 µg/mL | MIC S. aureus (S. aureus (Sau) [11]): >64 µg/mL | MIC Sau (S. aureus (Sau) [11]): >64 µg/mL | MBIC (E. coli (Ec) [12]): 32 µg/mL | MBIC E. coli (E. coli (Ec) [12]): 32 µg/mL | MBIC (S. aureus (Sau) [13]): 4 µg/mL | MBIC S. aureus (S. aureus (Sau) [13]): 4 µg/mL | MIC E. coli (E. coli (Ec) [14]): 64 µg/mL | MIC Ec (E. coli (Ec) [14]): 64 µg/mL | MIC (μM) MHB [15]: >64 µM | MIC (μM) TSB with 1% Glucose [15]: >64 µM | MIC Hs (Histophilus somnus (Hs) [16]): 16 µg/mL | MIC Mh [17]: >64 µg/mL | MIC Sp [18]: 8 µg/mL | MIC Pm [19]: >64 µg/mL | MIC Ss (Streptococcus suis (Ss) [20]): 32 µg/mL | MIC Su [21]: 16 µg/mL | MIC Sd [22]: >64 µg/mL | MIC Se [23]: >64 µg/mL | MIC Bb [24]: 64 µg/mL | MIC Pa [25]: >64 µg/mL | MIC Sa [26]: 8 µg/mL

KIQRRAWKQWRK-NH2 [Peptide 3014, KIQRRAWKQWRK]
% Toxicity (LDH Release) (PBMCs): −3.7% | MIC S. aureus (S. aureus (Sau) [11]): >64 µg/mL | MBIC E. coli (E. coli (Ec) [12]): 64 µg/mL | MBIC S. aureus (S. aureus (Sau) [13]): 64 µg/mL | MIC E. coli (E. coli (Ec) [14]): 64 µg/mL | MIC (μM) MHB [15]: >64 µM | MIC (μM) TSB with 1% Glucose [15]: >64 µM

KKWQLLIKWKLR-NH2 [Peptide 3008, KKWQLLIKWKLR]
% Toxicity (LDH Release) (PBMCs): 18.8% | MIC S. aureus (S. aureus (Sau) [11]): 8 µg/mL | MBIC E. coli (E. coli (Ec) [12]): 4 µg/mL | MBIC S. aureus (S. aureus (Sau) [13]): 2 µg/mL | MIC E. coli (E. coli (Ec) [14]): 8 µg/mL | MIC (μM) MHB [15]: 2 µM | MIC (μM) TSB with 1% Glucose [15]: 4 µM

LIVIQLLKKWWK-NH2 [Peptide 3020, LIVIQLLKKWWK]
% Toxicity (LDH Release) (PBMCs): 10.2% | MIC S. aureus (S. aureus (Sau) [11]): 16 µg/mL | MBIC E. coli (E. coli (Ec) [12]): 1 µg/mL | MBIC S. aureus (S. aureus (Sau) [13]): <1 µg/mL | MIC E. coli (E. coli (Ec) [14]): 2 µg/mL | MIC (μM) MHB [15]: 8 µM | MIC (μM) TSB with 1% Glucose [15]: >64 µM

RRIIKILLWKLR-NH2 [Peptide 3021, RRIIKILLWKLR]
% Toxicity (LDH Release) (PBMCs): 13.1% | MIC S. aureus (S. aureus (Sau) [11]): 8 µg/mL | MBIC E. coli (E. coli (Ec) [12]): 2 µg/mL | MBIC S. aureus (S. aureus (Sau) [13]): 1 µg/mL | MIC E. coli (E. coli (Ec) [14]): <1 µg/mL | MIC (μM) MHB [15]: 4 µM | MIC (μM) TSB with 1% Glucose [15]: 32 µM

RRQWRGWVRIWL-NH2 [Peptide 3005, RRQWRGWVRIWL]
% Toxicity (LDH Release) (PBMCs): −4.2% | MIC S. aureus (S. aureus (Sau) [11]): 8 µg/mL | MBIC E. coli (E. coli (Ec) [12]): 2 µg/mL | MBIC S. aureus (S. aureus (Sau) [13]): 1 µg/mL | MIC E. coli (E. coli (Ec) [14]): 4 µg/mL | MIC (μM) MHB [15]: 4 µM | MIC (μM) TSB with 1% Glucose [15]: 64 µM
